From ChEMBL document CHEMBL1136595, “Oximino-piperidino-piperidine-based CCR5 antagonists. Part 2: synthesis, SAR and biological evaluation of symmetrical heteroaryl carboxamides” (Bioorg Med Chem Lett, 2003)

Experiments:
[1] = Area under curve after peroral administration at 10 mg/kg in rat for 0-6 h; type: ADME, organism-based; parameters: time < 6 hr, dose 10 mg/kg, route oral; settings: in vivo, po
[2] = biological target: C-C chemokine receptor type 5 (Homo sapiens, UniProt P51681); experiment: Inhibition of [125I]RANTES binding to CCR5 receptor.
Chain of C-C chemokine receptor type 5 (P51681 whole entry): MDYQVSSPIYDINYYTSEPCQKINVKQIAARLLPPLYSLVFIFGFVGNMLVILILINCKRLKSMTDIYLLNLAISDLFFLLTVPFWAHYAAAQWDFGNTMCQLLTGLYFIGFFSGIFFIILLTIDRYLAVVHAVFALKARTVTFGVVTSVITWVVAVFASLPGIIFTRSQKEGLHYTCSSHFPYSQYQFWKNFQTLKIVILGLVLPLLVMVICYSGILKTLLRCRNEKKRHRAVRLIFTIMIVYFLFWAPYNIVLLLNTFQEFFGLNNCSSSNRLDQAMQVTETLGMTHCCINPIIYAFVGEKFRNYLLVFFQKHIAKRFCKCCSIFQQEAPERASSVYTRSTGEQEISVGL

[3] = test system: Human immunodeficiency virus 1; experiment: Inhibition of HIV-1 (ADA) entry into U-87 (human glioblastoma) cells.; type: functional, organism-based; settings: Human immunodeficiency virus 1, U-87 MG

SMILES | AUC at 6 h [1] [ng·h/mL] | Ki [2] [nM] | IC50 [3] [nM]
Cc1ncnc(C)c1C(=O)N1CCC(C)(N2CCC(/C(=N\OCC3CC3)c3ccc(Br)cc3)CC2)CC1 | 3700 | 11 | 
CCO/N=C(\c1ccc(Br)cc1)C1CCN(C2(C)CCN(C(=O)c3c(Cl)c[n+]([O-])cc3Cl)CC2)CC1 | 3900 | 1.2 | 0.15
CCCO/N=C(/c1ccc(Br)cc1)C1CCN(C2(C)CCN(C(=O)c3c(C)ncnc3C)CC2)CC1 | 1600 | 2 | 0.89
Cc1ncnc(C)c1C(=O)N1CCC(C)(N2CCC(/C(=N\OCC(C)C)c3ccc(Br)cc3)CC2)CC1 | 600 | 8.1 | 1.17
CCO/N=C(/c1ccc(Br)cc1)C1CCN(C2(C)CCN(C(=O)c3c(C)nc(SC)nc3C)CC2)CC1 | 400 | 1.3 | 
CCO/N=C(/c1ccc(Br)cc1)C1CCN(C2(C)CCN(C(=O)c3c(C)nc(C(C)C)nc3C)CC2)CC1 |  | 43 | 
CO/N=C(\c1ccc(Br)cc1)C1CCN(C2(C)CCN(C(=O)c3c(C)ncnc3C)CC2)CC1 | 4100 | 4.7 | 1.83
Cc1ncnc(C)c1C(=O)N1CCC(C)(N2CCC(/C(=N\OC(C)C)c3ccc(Br)cc3)CC2)CC1 | 2400 | 3.3 | 0.28
Cc1ncnc(C)c1C(=O)N1CCC(C)(N2CCC(/C(=N\OCC(F)(F)F)c3ccc(Br)cc3)CC2)CC1 | 6900 | 14 | 3.8
CCO/N=C(/c1ccc(Br)cc1)C1CCN(C2(C)CCN(C(=O)c3c(C)nc(C)nc3C)CC2)CC1 | 2700 | 2.1 | 0.93
CCO/N=C(\c1ccc(Br)cc1)C1CCN(C2(C)CCN(C(=O)c3c(Br)c[n+]([O-])cc3Br)CC2)CC1 | 4400 | 0.7 | 1.24
CCO/N=C(/c1ccc(Br)cc1)C1CCN(C2(C)CCN(C(=O)c3c(C)nc(OC)nc3C)CC2)CC1 | 1800 | 5.3 | 0.13
CCO/N=C(/c1ccc(Br)cc1)C1CCN(C2(C)CCN(C(=O)c3c(C)nc(C(F)(F)F)nc3C)CC2)CC1 | 2000 | 3.2 | 0.26
CCO/N=C(\c1ccc(Br)cc1)C1CCN(C2(C)CCN(C(=O)c3c(Br)cncc3Br)CC2)CC1 | 500 |  | 1.04
CCO/N=C(/c1ccc(Br)cc1)C1CCN(C2(C)CCN(C(=O)c3c(C)nc(NS(C)(=O)=O)nc3C)CC2)CC1 |  | 315 | 
COC[C@@H](c1ccc(C(F)(F)F)cc1)N1CCN(C2(C)CCN(C(=O)c3c(C)ncnc3C)CC2)C[C@@H]1C [VICRIVIROC] | 6500 |  | 0.6
CCO/N=C(\c1ccc(Br)cc1)C1CCN(C2(C)CCN(C(=O)c3c(C)c[n+]([O-])cc3C)CC2)CC1 | 1600 | 8.8 | 0.4
CCO/N=C(/c1ccc(Br)cc1)C1CCN(C2(C)CCN(C(=O)c3c(C)nc(C4CC4)nc3C)CC2)CC1 |  | 25 | 
CCO/N=C(/c1ccc(Br)cc1)C1CCN(C2(C)CCN(C(=O)c3c(C)nc(NC(C)=O)nc3C)CC2)CC1 |  | 60 | 
CCO/N=C(\c1ccc(Br)cc1)C1CCN(C2(C)CCN(C(=O)c3c(Cl)cncc3Cl)CC2)CC1 | 500 |  | 0.69
CCO/N=C(/c1ccc(Br)cc1)C1CCN(C2(C)CCN(C(=O)c3c(C)nc(N)nc3C)CC2)CC1 | 3100 | 5.7 | 0.35
CCO/N=C(\c1ccc(Br)cc1)C1CCN(C2(C)CCN(C(=O)c3c(C)cncc3C)CC2)CC1 | 1300 | 2.3 | 
CCO/N=C(\c1ccc(Br)cc1)C1CCN(C2(C)CCN(C(=O)c3c(C)ncnc3C)CC2)CC1 | 3100 | 2.2 | 0.36
